Patent publication US7432388B2 (Allergan, Inc., priority 2003, dated 2008)

Legend:
Type in all cases: cell-based
RARα [1] = molecular target: T1, RARα (Homo sapiens, UniProt P10276); test: chimeric receptor transactivation assay (agonist-like activity); set-up: RAR EC50 (nM) (% Efficiency) α; details: read-out: RAR EC50 (nM) (% Efficiency) α
T1 sequence (P10276 183-417 limits assumed): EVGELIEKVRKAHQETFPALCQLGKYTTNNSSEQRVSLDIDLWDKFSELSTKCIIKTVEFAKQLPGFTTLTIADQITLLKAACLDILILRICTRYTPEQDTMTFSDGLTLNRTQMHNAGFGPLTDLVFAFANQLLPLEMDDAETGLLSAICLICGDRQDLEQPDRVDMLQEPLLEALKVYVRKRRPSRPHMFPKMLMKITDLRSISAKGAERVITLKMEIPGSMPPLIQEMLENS
Procedure: (§1) Specifically, one assay in which the compounds were tested is a chimeric receptor transactivation assay which tests for agonist-like activity in the RARα, RARγ and RARγ receptor subtypes, and which is based on work published by Feigner P. L. and Holm M (1989) Focus, 112 is described in detail in U.S. Pat. No. 5,455,265. The specification of U.S. Pat. No. 5,455,265 is hereby expressly incorporated by reference.
(§2) A holoreceptor transactivation assay and a ligand binding assay which measure the antagonist/agonist like activity of the compounds of the invention, or their ability to bind to the several retinoid receptor subtypes, respectively, are described in published PCT Application No. WO WO93/11755 (particularly on pages 30-33 and 37-41) published on Jun. 24, 1993, the specification of which is also incorporated herein by reference. A detailed experimental procedure for holoreceptor transactivations has been described by Heyman et al. Cell 68, 397-406, (1992); Allegretto et al. J. Biol. Chem. 268, 26625-26633, and Mangelsdorf et al. The Retinoids: Biology, Chemistry and Medicine, pp 319-349, Raven Press Ltd., New York, which are expressly incorporated herein by reference. The results obtained in this assay are expressed in EC50 numbers, as they are also in the chimeric receptor transactivation assay. The other functional assay running in the presence of 1 nM all-trans retinoic acid, namely PGA-RAR antagonist assay (utilizing glucocorticoid-retinoid chimeric receptors), is a modified chimeric receptor transactivation assay which tests the compounds for their antagonist-like activity in the RARα, RARγ and RARγ receptor subtypes. The results from this assay are normally expressed in IC50 numbers (See Teng et al. J. Med. Chem. 40, 2445-2452, (1997) incorporated herein by reference.)

RARγ [2] = molecular target: T2, RARγ (Homo sapiens, UniProt P13631); test: PGA-RAR antagonist assay (glucocorticoid-retinoid chimeric receptors); set-up: RAR IC50 (nM) γ; other: in the presence of 1 nM all-trans retinoic acid; fused on or other part: Glucocorticoid receptor DNA-recognition part in place of RAR's own; details: for IC50: in the presence of 1 nM all-trans retinoic acid, read-out: RAR IC50 (nM) γ; for RAR γ (% Inhibition): percentage of the maximum inhibition of the activity induced by 1 nM all-trans retinoic acid
T2 sequence (P13631 185-419 limits assumed): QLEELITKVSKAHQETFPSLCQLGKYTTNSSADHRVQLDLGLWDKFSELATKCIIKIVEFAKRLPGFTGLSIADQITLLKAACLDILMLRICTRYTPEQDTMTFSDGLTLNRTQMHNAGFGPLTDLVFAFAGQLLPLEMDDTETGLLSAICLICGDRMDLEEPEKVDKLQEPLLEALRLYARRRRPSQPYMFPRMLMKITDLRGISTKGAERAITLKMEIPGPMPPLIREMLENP
Procedure: The results obtained in this assay are expressed in EC50 numbers, as they are also in the chimeric receptor transactivation assay. The other functional assay running in the presence of 1 nM all-trans retinoic acid, namely PGA-RAR antagonist assay (utilizing glucocorticoid-retinoid chimeric receptors), is a modified chimeric receptor transactivation assay which tests the compounds for their antagonist-like activity in the RARα, RARγ and RARγ receptor subtypes.

RARβ [3] = molecular target: T3, RARβ (Homo sapiens, UniProt P10826); test: as above; set-up: other: in the presence of 1 nM all-trans retinoic acid; fused on or other part: Glucocorticoid receptor DNA-recognition part in place of RAR's own; details: in the presence of 1 nM all-trans retinoic acid; read-out: RAR IC50 (nM) (% Inhibition) β
T3 sequence (P10826 183-417 limits assumed): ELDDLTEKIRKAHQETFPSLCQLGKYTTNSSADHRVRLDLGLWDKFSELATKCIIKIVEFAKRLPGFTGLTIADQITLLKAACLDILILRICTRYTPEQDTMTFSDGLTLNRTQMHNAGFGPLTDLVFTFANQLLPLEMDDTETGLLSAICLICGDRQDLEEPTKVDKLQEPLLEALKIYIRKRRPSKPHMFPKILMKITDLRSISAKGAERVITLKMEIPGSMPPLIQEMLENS
Text: as §2
(§3) Percentage inhibition in an antagonist assay is expressed as a percentage of the maximum inhibition of the transaction activity induced by 1 nM all-trans retinoic acid.

RARα [4] = molecular target: T1, RARα; test: as above; set-up: other: in the presence of 1 nM all-trans retinoic acid; fused on or other part: Glucocorticoid receptor DNA-recognition part in place of RAR's own; details: in the presence of 1 nM all-trans retinoic acid; read-out: RAR IC50 (nM) (% Inhibition) α
Text: as §2, §3

RARβ [5] = molecular target: T3, RARβ; test: chimeric receptor transactivation assay (agonist-like activity); set-up: RAR EC50 (nM) (% Efficiency) β; details: read-out: RAR EC50 (nM) (% Efficiency) β
Procedure: as §1, §2

RARγ [6] = molecular target: T2, RARγ; test: as above; set-up: RAR EC50 (nM) (% Efficiency) γ; details: read-out: RAR EC50 (nM) (% Efficiency) γ

| EC50 (RARα [1]) | IC50 (RARγ [2]) | RAR γ (% Inhibition) (RARγ [2]) | IC50 (RARβ [3]) | IC50 (RARα [4]) | EC50 (RARβ [5]) | EC50 (RARγ [6]) | Structure (SMILES) |
| --- | --- | --- | --- | --- | --- | --- | --- |
| > 10000 nM | 2 nM | 108% | > 100000 nM | > 50000 nM | > 10000 nM | > 10000 nM | Cc1ccc(C2=CCC(C)(C)c3cc(C(/C=C/c4ccc(C(=O)O)cc4)=NO)ccc32)cc1 (racemic) [Compound 7c, 4-[3-(8,8-Dimethyl-5-p-tolyl-7,8-dihydro-naphthalen-2-yl)-3-hydroxyimino-propenyl]-benzoic acid] |
| > 10000 nM | 0.6 nM | 95% | > 1000 nM | > 1000 nM | > 10000 nM | > 10000 nM | Cc1ccc(C2=CCC(C)(C)c3cc(C(/C=C/c4ccc(C(=O)O)cc4)=N/O)ccc32)cc1 [Compound 7a, E-4-[3-(8,8-Dimethyl-5-p-tolyl-7,8-dihydro-naphthalen-2-yl)-3-hydroxyimino-propenyl]-benzoic acid] |
| > 10000 nM | 25 nM | 88% | > 1000 nM | > 1000 nM | > 10000 nM | > 10000 nM | Cc1ccc(C2=CCC(C)(C)c3cc(C(/C=C/c4ccc(C(=O)O)cc4)=N\O)ccc32)cc1 [Compound 7b, Z-4-[3-(8,8-dimethyl-5-p-tolyl-7,8-dihydro-naphthalen-2-yl)-3-hydroxyimino-propenyl]-benzoic acid] |
| > 10000 nM | 5 nM | 90% | > 1000 nM | > 1000 nM | > 10000 nM | > 10000 nM | Cc1ccc(C2=CCC(C)(C)c3cc(C(/C=C/c4ccc(C(=O)O)cc4F)=N/O)ccc32)cc1 [Compound 9a, E-4-[3-(8,8-Dimethyl-5-p-tolyl-7,8-dihydro-naphthalen-2-yl)-3-hydroxyimino-propenyl]-3-fluoro-benzoic acid] |
| > 10000 nM | 13 nM | 78% | > 1000 nM | > 1000 nM | > 10000 nM | > 10000 nM | Cc1ccc(C2=CCC(C)(C)c3cc(C(/C=C/c4ccc(C(=O)O)cc4F)=N\O)ccc32)cc1 [Compound 9b, Z-4-[3-(8,8-Dimethyl-5-p-tolyl-7,8-dihydro-naphthalen-2-yl)-3-hydroxyimino-propenyl]-3-fluoro-benzoic acid] |
| > 10000 nM | 27 nM | 78% | > 1000 nM | > 1000 nM | > 10000 nM | > 10000 nM | Cc1ccc(C2=CC(C)(C)c3cc(C(/C=C/c4ccc(C(=O)O)cc4)=N/O)ccc32)cc1 [Compound 16a] |
| > 10000 nM | 67 nM | 54% | > 1000 nM | > 1000 nM | > 10000 nM | > 10000 nM | Cc1ccc(C2=CC(C)(C)c3cc(C(/C=C/c4ccc(C(=O)O)cc4)=N\O)ccc32)cc1 [Compound 16b] |
| > 10000 nM | 52 nM | 70% | > 1000 nM | > 1000 nM | > 10000 nM | > 10000 nM | Cc1ccc(C2=CC(C)(C)c3cc(C(/C=C/c4ccc(C(=O)O)cc4F)=N/O)ccc32)cc1 [Compound 18a, E-4-[3-(3,3-Dimethyl-1-p-tolyl-3H-inden-5-yl)-3-hydroxyimino-propenyl]-3-fluoro-benzoic acid] |
| > 10000 nM | 226 nM | 58% | > 1000 nM | > 1000 nM | > 10000 nM | > 10000 nM | Cc1ccc(C2=CC(C)(C)c3cc(C(/C=C/c4ccc(C(=O)O)cc4F)=N\O)ccc32)cc1 [Compound 18b, Z-4-[3-(3,3-Dimethyl-1-p-tolyl-3H-inden-5-yl)-3-hydroxyimino-propenyl]-3-fluoro-benzoic acid] |
